Results on 19 compounds are retold here after ChEMBL document CHEMBL5360542, “Current development of β-carboline derived potential antimalarial scaffolds” (Eur J Med Chem, 2023).

For series [1], the system named is Plasmodium falciparum. Kind of series: Antimalarial activity against artemisinin-sensitive parental Plasmodium falciparum 3D7 infected in O positive erythrocytes assessed as reduction in parasite growth incubated for 48 hrs by giemsa staining based assay. The class given is functional, organism-based. The settings on record: 3D7, Erythrocyte.
For series [2], the system named is Plasmodium falciparum. Kind of series: Antimalarial activity against artemisinin-resistant Plasmodium falciparum R539T infected in O positive erythrocytes assessed as reduction in parasite growth incubated for 48 hrs by giemsa staining based assay. The settings on record: Erythrocyte. Type of series: functional, organism-based.
Series [3] is described as follows: Selectivity index, ratio of IC50 for chloroquine-resistant Plasmodium falciparum RKL-9 transfected in A positive human erythrocytes to IC50 for chloroquine-sensitive Plasmodium falciparum 3D7 transfected in A positive human erythrocytes. Type of series: functional.
Series [4] relates to Plasmodium falciparum. Kind of series: Antimalarial activity against chloroquine-sensitive Plasmodium falciparum 3D7 transfected in A positive human erythrocytes assessed as reduction in schizont maturation incubated for 48 hrs by giemsa stain based assay. The settings on record: 3D7, 48 h. The class given is functional, organism-based.
Series [5] has as its system Plasmodium berghei. Kind of series: Antiplasmodial activity against Plasmodium berghei NK-65 infected in Swiss albino mouse assessed as reduction of parasitaemia at 100 mg/kg, po administered once daily for 4 days followed by artesunate addition at 50 mg/kg for 60 mins and measured 24 hrs post last dose by giemsa staining based analysis relative to control. Type of series: functional. On the set-up: scale not given: the % may be the effect or the level left. The settings on record: time 5 day.

Series [6] deals with Plasmodium falciparum. Kind of series: Antimalarial activity against chloroquine-resistant Plasmodium falciparum RKL-9 transfected in A positive human erythrocytes assessed as reduction in schizont maturation incubated for 48 hrs by giemsa stain based assay. Type of series: functional, organism-based. As to conditions: RKL-9, 48 h.
Series [7] concerns Plasmodium berghei. The series can be described thus: Antiplasmodial activity against Plasmodium berghei NK-65 infected in Swiss albino mouse assessed as mean survival time of mouse at 100 mg/kg, po administered once daily for 4 days followed by artesunate addition at 50 mg/kg for 60 mins and measured 24 hrs post last dose by giemsa staining based analysis. Type of series: functional. As to conditions: time 5 day.

Series [8] can be described thus: Cytotoxicity against human dermal fibroblast cultured as 2D cells assessed as inhibition of cell growth incubated for 48 hrs by MTT assay. Type of series: toxicity, cell-based. As to conditions: human dermal fibroblasts cultured as 2D cells. (Formazan colour is commonly taken as a measure of viable cells.)
In series [9] the test system is Plasmodium falciparum. Kind of series: Antimalarial activity against chloroquine-sensitive Plasmodium falciparum […] assessed as reduction in parasite growth. Type of series: functional, organism-based.
Series [10] has as its system Plasmodium falciparum. The series can be described thus: Antimalarial activity against chloroquine-resistant Plasmodium falciparum FcB1 assessed as inhibition of parasite growth. Type of series: functional, organism-based.
Series [11] has as its system Plasmodium falciparum. Kind of series: Antimalarial activity against chloroquine-sensitive Plasmodium falciparum 3D7 by SYBR green assay. Type of series: functional, organism-based.
Series [12] deals with Plasmodium falciparum. The series can be described thus: Antimalarial activity against chloroquine-resistant Plasmodium falciparum K1. Type of series: functional, organism-based.
The test system of series [13] is Plasmodium falciparum. Kind of series: Antimalarial activity against chloroquine-resistant Plasmodium falciparum K1 assessed as reduction in parasite growth incubated for 72 hrs by ELISA. The settings on record: K1, 72 h. Type of series: functional, organism-based. On the technique in general: An ELISA detects its analyte on a solid surface through an enzyme-linked reagent.

Series [14] has as its system Plasmodium falciparum. The series can be described thus: Antimalarial activity against Plasmodium falciparum NF54 infected in human erythrocytes assessed as reduction in parasitemia incubated for 48 hrs by [3H]-hypoxanthine based liquid scintillation counting analysis. As to conditions: NF54, Erythrocyte.

Values after ≈ are worked out from the molar mass of the structure shown.

What is called IC50 is the midpoint of a concentration-inhibition curve. With `COc1ccc(C2NCCc3c2[nH]c2ccccc32)cc1OC` (stereo unspecified), the values for the IC50 in the series with Plasmodium falciparum [1] and in the series with Plasmodium falciparum [2] were 3.03 µM and 2.99 µM, respectively.

As a reminder, the CC50 is the concentration giving 50% cytotoxicity. Consider `COC(=O)[C@@H]1Cc2c([nH]c3ccccc23)[C@@H](c2ccc3c(c2)OCO3)N1`, for which, in [3], the “Selectivity Index” value is above 10. The IC50 in the series with Plasmodium falciparum [4] and in the series with Plasmodium falciparum [6] was below 1 µg/mL in each case. The Activity in the series on Plasmodium berghei [5] amounted to 99.69%. Also, in the series on Plasmodium berghei [7], the Survival was determined as 25.8 days. The CC50 at 48 h in series [8] was above 640 µg/mL.

Take `O=C(O)CCc1nccc2c1[nH]c1ccccc12`: the IC50 in the series with Plasmodium falciparum [9] amounted to 0.0767 µg/mL (≈ 0.319 µM).

Consider `O=C(O)c1cc2c([nH]c3ccccc32)c(-c2c[nH]c3ccccc23)n1`, for which the IC50 in the series on Plasmodium falciparum [10] is above 31 µM.

Regarding `O=C(c1c[nH]c2ccc(O)cc12)c1nccc2c1[nH]c1ccc(O[C@@H]3O[C@H](CO)[C@@H](O)[C@H](O)[C@H]3O)cc12`, in the series with Plasmodium falciparum [11], the IC50 was found to be 5 µM.

`C/C=C/C(=O)N1CCc2c(n(C(=O)OC(C)(C)C)c3ccccc23)C1CC(=O)OCC` (stereo unspecified): in the series with Plasmodium falciparum [12], the IC50 was determined as 15 µM.

As to `CC(C)(C)OC(=O)n1cc(CC2NCCc3c2[nH]c2ccccc32)c2ccccc21` (stereo unspecified), in the series with Plasmodium falciparum [10], the IC50 worked out at 8.5 µM.

For the compound `C/C=C/C(=O)N1CCc2c([nH]c3ccccc23)C1CC(=O)OCC` (stereo unspecified), the concentration for half-maximal inhibition (IC50) in the series on Plasmodium falciparum [13] worked out at 13.8 µM.

On to `Clc1cc(Cl)c(Cl)c(C2NCCc3c2[nH]c2ccccc32)c1` (stereo unspecified), for which the 50% inhibitory concentration (IC50) was determined as 3.43 µM in the series with Plasmodium falciparum [1] and 4.89 µM in the series with Plasmodium falciparum [2].

In the case of `CON(C)C(=O)CC1c2c(c3ccccc3n2C(=O)OC(C)(C)C)CCN1C(=O)OCc1ccccc1` (stereo unspecified), in the series with Plasmodium falciparum [12], the midpoint of inhibition, the IC50, lay at 13.8 µM.

For the compound `c1ccc2c(CC3NCCc4c3[nH]c3ccccc43)c[nH]c2c1` (stereo unspecified), the IC50 in the series with Plasmodium falciparum [10] is 9.6 µM.

As to `CC#CCN1CCc2c([nH]c3ccccc23)C1CC(=O)OCC` (stereo unspecified), the IC50 in the series with Plasmodium falciparum [13] stood at 13.8 µM.

In the case of `CCOC(=O)CC1c2c(c3ccccc3n2C(=O)OC(C)(C)C)CCN1C(=O)OCc1ccccc1` (stereo unspecified), the IC50 in the series on Plasmodium falciparum [13] was determined as 15.5 µM.

Turning to `CCOC(=O)CC1c2[nH]c3ccccc3c2CCN1S(=O)(=O)c1ccc(C)cc1` (stereo unspecified), in the series with Plasmodium falciparum [13], the IC50 is 13.8 µM.

Consider `COC(=O)C1Cc2c([nH]c3ccccc23)C(Cc2c[nH]c3ccccc23)N1` (stereo unspecified), for which the IC50 in the series on Plasmodium falciparum [10] is 17.2 µM.

In the series with Plasmodium falciparum [12], `CC(C)(C)OC(=O)n1c2c(c3ccccc31)CCN(C(=O)OCc1ccccc1)C2CCO` (stereo unspecified) had an IC50 of 21.4 µM.

As to `CC#CCN1CCc2c(n(C(=O)OC(C)(C)C)c3ccccc23)C1CC(=O)OCC` (stereo unspecified), in the series on Plasmodium falciparum [12], the midpoint of inhibition, the IC50, lay at 29.8 µM.

Consider `C[C@H]1Cc2c([nH]c3cc(Cl)c(F)cc23)[C@@]2(N1)C(=O)Nc1ccc(Cl)cc12` [CIPARGAMIN], for which the IC50 with Plasmodium falciparum [14] is 0.0005 µM.

As to `O=C(c1c[nH]c2ccc(O)cc12)c1nccc2c1[nH]c1ccc(O)cc12` [HYRTIOSULAWESINE], in the series on Plasmodium falciparum [10], the IC50 amounted to 1.3 µM.
